Experimental data from US20070141341A1, “Coating containing denatured aloe vera, for covering either chlorine-generating compositions or other hazardous chemicals and method for making” (priority 2005, published 2007).

System: E. coli
Test: Reductions of E. coli organisms

## O=c1n(Cl)c(=O)n(Cl)c(=O)n1Cl [Uncoated ACL, trichloroisocyanuric acid]
After 5 minutes
  E. coli remaining after 5 minutes: 0
After ½ hour
  E. coli remaining after: ½ hour: Slightly
